These results are taken from patent US20180193361A1, “GUT ANTI-INFLAMMATORY AGENTS FOR REGULATION OF HIGH BLOOD GLUCOSE LEVELS” (UNIVERSITY HEALTH NETWORK, priority 2015, published 2018).

For one data set, the system named is endotoxin, anti-LPS IgG. As to the kind of experiment: Endotoxin and anti-LPS IgG measurements. The data set is classed as in vivo, mice. The settings on record: HFD vs HFD 5-ASA, 14 weeks. An excerpt: We measured endotoxin levels in the serum and adipose tissue using Pyrogene Recombinant C endotoxin detection fluorescence kit (Lonza Inc.). We measured mouse serum anti-LPS IgG antibody levels with a commercially available kit (Chrondrex Inc.).

Data set [1] deals with gluconeogenesis enzyme and adipogenesis-related genes. Description: q-PCR of gluconeogenesis and adipogenesis genes, HFD or HFD 5-ASA mice. The data set is classed as in vivo. An excerpt:
We extracted total RNA from isolated or cultured cells using a RNeasy Mini Kit (Qiagen), and for subcutaneous adipose tissue (SAT) and VAT we used a RNeasy Lipid Extraction kit (Qiagen). We reverse-transcribed the RNA by random primers with M-MLV (Invitrogen). We performed q-PCR with a 7900HT PCR system (Applied Biosystems) using SYBR® Green master mix reagent (Applied Biosystems). We assessed expression of adipocyte P2 (aP2), CCAAT/enhancer-binding protein-α (CEBPα), Peroxisome proliferator-activated receptor-γ (PPARγ), and sterol regulatory element-binding protein (SREBP) cDNA. […] We calculated relative fold changes in gene expression normalized to 18s or GAPDH by the ΔΔCT method using the equation 2-ΔΔCT. The results are shown as fold changes compared to the control group.

The next data set has as its system splenic T cells. As to the kind of experiment: In vitro IFNγ secretion, anti-CD3/CD28-activated splenic T cells. Conditions: splenic T cells from HFD-fed WT mice, 72 hour; 5-ASA 0.1 mM. The class given is cell-based. The procedure: To measure the effect of IFNγ on tight-junction gene expression, we treated MODE-K cells with recombinant mouse IFNγ (Biolegend). We purified bulk dendritic cells and T cells from murine small bowels and spleens using a negative selection DC or T cell isolation kit (Stem Cell Technologies). We plated T cells at 5×10^5 cells/well with plate-bound anti-CD3/CD28 (1 μg/ml, Biolegend). […] We collected supernatants for cytokine measurements after 72 hour incubation. […] After 24 hours, we washed the cells with PBS and co-cultured them (1×10^4 cells/well) with OVA323-339 peptide and OT-II splenic or small bowel T cells (5×10^4 cells/well) for 48 hours. Supernatants were collected at 48 hours for cytokine measurement. We measured serum cytokines by Luminex Multiplex cytokine assay (Millipore, run by the UHN Microarray Center), and quantified IL-10 and IFN-γ in supernatants of anti-CD3/CD28-stimulated splenocytes or bowel immune cells (Winer et al., 2009b) by ELISA (Biolegend).

In the next data set the test system is NCD-fed C57BL/6 mice. As to the kind of experiment: Metabolic studies, NCD or NCD 5-ASA. The class given is in vivo. The settings on record: NCD vs NCD 5-ASA 1500 mg/kg/day, 12 weeks.
For data set [2], the system named is oral tolerance to OVA antigen. As to the kind of experiment: Oral tolerance studies (OVA). The class given is in vivo, mice. Conditions: HFD 5-ASA vs HFD. As to the method:
We administered oral ovalbumin (OVA) in the form of drinking water (1 mg/mL) for 7 days to NCD-, HFD- or HFD 5-ASA-fed mice to induce oral tolerance. Average consumption was similar across different groups, at 5 mL per day. Following oral tolerance induction, we immunized animals with or without oral tolerance induction subcutaneously with OVA/CFA (50 μg per side) on both sides of the chest. Axillary draining lymph nodes and VAT were collected 7 days following immunization and subjected to immunological analysis, including OVA323-339/I-A^b tetramer staining and OVA-induced cytokine production and proliferation in vitro. Briefly, we processed axillary lymph nodes into single-cell suspension through a 70 μm filter and cultured the cells (5×10^5/well) in 96-well U-bottom plate with indicated concentrations of OVA (Sigma). We collected culture supernatants at 48 h for determination of IL-2 and IFNγ via ELISA (Biolegend). To measure OVA-specific antibody responses, we performed ELISA by plating diluted serum samples (1:200-1:4000) onto OVA-coated ELISA plates (10 μg/mL), followed by biotinylated anti-mouse isotype-specific secondary antibodies (1:5000 dilution) (Southern Biotech) and HRP-conjugated streptavidin (Biolegend). To measure-OVA-specific Tregs, we stained VAT immune cells with a 1:200 dilution of PE-conjugated OVA323-339/I-A^b or control hCLIP/I-A^b tetramers (NIH Tetramer Core Facility) in FBS-supplemented RPM-I for 4 hours at 37° C., followed by antibody staining for other surface antigens and Foxp3.

For a further data set, the system named is gut bacteria. As to the kind of experiment: Gut microbiome sequencing. The class given is in vivo. The settings on record: HFD 5-ASA-fed mice. As to the method: We amplified the V4 hypervariable region of the 16S rRNA gene using a universal forward sequencing primer and a uniquely barcoded reverse sequencing primer to allow for multiplexing (Caporaso et al., 2012). Primers contained an adapter sequence to bind the amplicons to the Illumina flow cell. PCR-based library construction was performed in triplicate 25 μl solutions containing 1×KAP[…] Robust HotStart ReadyMix, 600 nM each of primer, and 1 μl of DNA template. For every PCR reaction sterile dH2O was used as a negative control to ensure no contaminating DNA was present. PCR conditions were 95° C. for 3 min, followed by 18 cycles of 95° C. for 15 s, 58° C. for 15 s, 72° C. for 15 s and were completed at 72° C. for 5 min. All PCR reactions were run on a 1% agarose gel to visualize the amplification and approximate DNA quantity. Individual barcoded samples from the triplicates were pooled by approximately even concentrations to create the final library. The final library was purified using 0.8 volumes of Agencourt AMPure XP beads (Beckman Coulter, Indianapolis, Ind.) according to the manufacturer's protocol and quantified using the Qubit Fluorometer. The final library was prepared according to the MiSeq user guide, diluted to a concentration of 7 pM and combined with a 5% PhiX control. Sequencing was performed using the V2 (150 bp×2) chemistry and sequenced on the Illumina MiSeq (Illumina, San Diego, Calif.).

A short description of data set [3]: HPLC of 5-ASA in serum and tissues with internal 4-ASA standard. The class given is in vivo, mice. Conditions: mouse, colon and small bowel relative to serum, oral.
Protocol: We cut frozen tissues and homogenized them in 80% methanol (30 mg/mL) on ice. We spiked 100 μL aliquots with 4-ASA used as internal standard (200 ng), and 400 μL 80% methanol were added. For plasma, we thawed samples from −80° C. at room temperature. 75 μL plasma were spiked with 4-ASA used as internal standard (200 ng) and mixed with 300 μL of methanol for 5 minutes (vortex). Samples were centrifuged (20,000×g, 15 minutes, 4° C.). Supernatants were separated from the pellets and taken to dryness under nitrogen gas in the fumehood. We then reconstituted the dry residues in 200 μL of mobile phase, vortexed for 1 minute and centrifuged at 20,000×g for 15 minutes. The supernatants were transferred to autosampler vials fitted with inserts and sealed caps. Aliquots of the solution were injected into HPLC for analysis.
We performed high performance liquid chromatography using a Dionex Ultimate 3000 system equipped with a binary pump, a built-in autosampler, a photodiode array and a RF 2000 fluorescence detector. […] The analytes were monitored by fluorescence (excitation: 337 nm and emission: 432 nm) and by (UV235 nm). We analyzed the chromatograms produced using Chromeleon version 6.8 software.

Protocol for NCD-fed C57BL/6 mice: Mice. Mice were fed either NCD (15 kcal % fat) or HFD (Research Diets, 60 kcal % fat, irradiated) starting at 6 weeks of age. […] Mice were maintained in a pathogen-free, temperature-controlled environment on a 12-hour light and dark cycle. All mice used in comparative studies were male, age-matched, and litter mates where possible. […] We measured body weights, GTTs, ITTs, serum insulin, and fat cell diameter as previously described (Winer et al., 2009a). All GTTs were performed with a 1.5 g/kg glucose i.p. injection unless indicated otherwise.

The term Kp denotes the ratio of the level in a tissue or fluid to that in plasma or blood. As to `Nc1ccc(O)c(C(=O)O)c1` [5-ASA, 5-aminosalicylic acid], in the data set with endotoxin, anti-LPS IgG, the “IgG responses to LPS (serum anti-LPS IgG)” value is “markedly diminished”, the VAT endotoxin levels entry is recorded as “trended lower” and the serum endotoxin result is recorded as “reduced”. Besides, in data set [1] (HFD vs HFD 5-ASA 1500 mg/kg/day), the “gluconeogenesis enzyme gene expression” value was “could not detect significant changes”. Also, the “expression of adipogenesis-related genes” value in data set [1] (VAT or SAT, HFD 5-ASA relative to HFD, 18 weeks of diet) is on record as “no effects”. Moreover, in the data set with splenic T cells, the IFNγ production entry was “not”. Also, in the data set with NCD-fed C57BL/6 mice, the IR result was “little or no difference”, the body weight entry is “little or no difference”, the fasting glucose entry is “little or no difference” and the glucose tolerance result is “little or no difference”. For the same compound, the “OVA-specific IgA” value in data set [2] (oral OVA then OVA-CFA immunization) is reported as “nearly threefold increase”. The “antigen-specific Tregs to OVA in VAT” value in data set [2] (OVA/I-Ab tetramers) is on record as “nearly fourfold increase”. In data set [2] (draining lymph nodes), the “OVA-specific T cell-derived IFNγ” value is “reduction” and the “OVA-specific T cell-derived IL-2” value is given as “reduction”. Also, in the data set on gut bacteria, the Clostridiales result is recorded as “increased”, the Firmicutes result was “increased”, the “abundance of Ruminococcaceae” value is reported as “increased” and the bacterial diversity result is on record as “increased”. In data set [3], this compound displayed a Kp of roughly 20.
